Source: ChEMBL document CHEMBL2401643, “The discovery of potent selective NPY Y(2) antagonists” (Bioorg Med Chem Lett, 2013)
Active and inactive are the calls of the source. The rule behind the calls is not given here.

Tests used:
[1] = molecular target: T1, Neuropeptide Y receptor type 2 (Homo sapiens, UniProt P49146); assay: (§1) Displacement of [125I]PYY from NPY-Y2 receptor in human KAN-TS cell membranes after 1 hr by scintillation counting analysis
T1 sequence (P49146 whole entry): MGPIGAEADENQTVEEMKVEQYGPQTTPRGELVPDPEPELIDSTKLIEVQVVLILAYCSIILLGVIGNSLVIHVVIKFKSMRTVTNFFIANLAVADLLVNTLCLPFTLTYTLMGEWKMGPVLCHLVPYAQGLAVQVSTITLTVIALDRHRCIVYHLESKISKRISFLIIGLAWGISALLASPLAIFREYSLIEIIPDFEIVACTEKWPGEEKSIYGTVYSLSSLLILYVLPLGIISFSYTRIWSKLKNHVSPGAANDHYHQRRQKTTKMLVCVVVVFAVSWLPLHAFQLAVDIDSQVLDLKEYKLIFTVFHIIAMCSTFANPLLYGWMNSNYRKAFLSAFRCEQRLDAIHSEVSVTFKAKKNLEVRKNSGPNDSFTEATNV

[2] = Metabolic stability in human liver microsomes assessed as compound remaining after 15 mins; format: ADME, Microsome; conditions: read-out: Stability
[3] = Metabolic stability in rat liver microsomes assessed as compound remaining after 15 mins; format: ADME, Microsome; conditions: read-out: Stability
[4] = molecular target: T2, Neuropeptide Y receptor type 2 (Homo sapiens) (UniProt P49146); assay: as §1
T2 sequence (whole entry): T1 sequence (P49146 whole entry)

[5] = molecular target: T3, Microsomal triglyceride transfer protein large subunit (Homo sapiens, UniProt P55157); assay: Inhibition of MTP (unknown origin)-mediated triglyceride transfer from donor to acceptor vesicles preincubated for 5 mins followed by enzyme addition by [14C]-counting analysis
T3 sequence (P55157 whole entry): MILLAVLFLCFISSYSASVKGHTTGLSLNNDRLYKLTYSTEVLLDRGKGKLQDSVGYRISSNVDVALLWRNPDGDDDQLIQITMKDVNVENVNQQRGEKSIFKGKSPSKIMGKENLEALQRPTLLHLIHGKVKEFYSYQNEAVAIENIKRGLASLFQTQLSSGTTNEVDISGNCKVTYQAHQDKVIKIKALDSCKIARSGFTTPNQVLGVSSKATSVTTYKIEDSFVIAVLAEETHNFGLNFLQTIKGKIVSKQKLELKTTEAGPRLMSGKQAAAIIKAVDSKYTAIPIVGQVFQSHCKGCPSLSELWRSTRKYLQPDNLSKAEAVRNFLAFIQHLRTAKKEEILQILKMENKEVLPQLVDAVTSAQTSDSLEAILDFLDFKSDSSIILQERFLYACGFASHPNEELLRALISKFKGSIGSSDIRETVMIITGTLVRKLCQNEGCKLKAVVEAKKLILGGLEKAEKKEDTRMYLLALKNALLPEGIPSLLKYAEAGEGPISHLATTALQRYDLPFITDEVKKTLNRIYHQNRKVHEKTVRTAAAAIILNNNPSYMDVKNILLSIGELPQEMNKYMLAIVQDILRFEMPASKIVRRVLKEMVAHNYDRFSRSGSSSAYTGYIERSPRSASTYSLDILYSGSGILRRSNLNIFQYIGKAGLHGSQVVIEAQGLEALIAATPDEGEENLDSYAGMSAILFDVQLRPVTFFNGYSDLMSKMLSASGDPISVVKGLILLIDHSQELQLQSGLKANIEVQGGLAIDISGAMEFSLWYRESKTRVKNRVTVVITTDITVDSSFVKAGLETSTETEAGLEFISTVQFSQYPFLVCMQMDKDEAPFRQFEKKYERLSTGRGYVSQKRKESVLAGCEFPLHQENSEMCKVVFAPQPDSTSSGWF

[6] = molecular target: T1, Neuropeptide Y receptor type 2; assay: Antagonist activity at NPY-Y2 receptor in human KAN-TS cell membranes assessed as inhibition of PYY-stimulated [35S]GTPgammaS binding preincubated for 30 mins prior to [35S]GTPgammaS-treatment measured after 1 hr; format: functional; conditions: read-out: pA2 (converted)
[7] = system: Rattus norvegicus; assay: Receptor occupancy in Sprague-Dawley rat brain at 10 mg/kg, sc by LC/MS analysis; format: functional
[8] = molecular target: T3, Microsomal triglyceride transfer protein large subunit; assay: Inhibition of MTP (unknown origin)

SMILES | IC50 [1] [nM] | remaining at 0.25 h [2] [%] | remaining at 0.25 h [3] [%] | further results
CCNC(=O)C(c1ccccc1)C1CCN(c2ccc(NC(=O)c3ccccc3-c3ccccc3)cc2F)CC1 (centres undefined) | 12 |  |  | 
CCN(CC)C(=O)C(c1ccccc1)C1CCN(c2ccc(NC(=O)c3ccccc3-c3cccnc3)cc2F)CC1 (centres undefined) | 7 | 73 | 98 | 
CCNC(=O)C(c1ccccc1)C1CCN(c2ccc(NS(=O)(=O)c3ccccc3-c3ccccc3)cc2F)CC1 (centres undefined) |  |  |  | Activity [4]: inactive
CCNC(=O)C(c1ccccc1)C1CCN(c2ccc(NC(=O)c3ccccc3-c3ccsc3)cc2F)CC1 (centres undefined) | 70 |  |  | 
CCNC(=O)C(c1ccccc1)C1CCN(c2ccc(NC(=O)Nc3ccccc3-c3ccccc3)cc2F)CC1 (centres undefined) | 27 |  |  | 
CCNC(=O)C(c1ccccc1)C1CCN(c2ccc(C(=O)Nc3ccccc3-c3ccccc3)cc2F)CC1 (centres undefined) | 45 |  |  | 
CCNC(=O)C(c1ccccc1)C1CCN(c2ccc(NC(=O)c3ccccc3Br)cc2F)CC1 (centres undefined) | 665 |  |  | 
CCN(CC)C(=O)C(c1ccccc1)C1CCN(c2ccc(NC(=O)Nc3c(C)noc3C)cc2F)CC1 (centres undefined) | 12 | 1.5 | 17 | IC50 [5]: > 10000 nM; Kb [6]: 2 nM; Occ [7]: inactive
CCNC(=O)C(c1ccccc1)C1CCN(c2ccc(NC(=O)c3ccccc3-c3cccnc3)cc2F)CC1 (centres undefined) | 24 |  |  | 
CCNC(=O)C(c1ccccc1)C1CCN(c2ccc(NC(=O)c3c(C)noc3C)cc2F)CC1 (centres undefined) | 476 |  |  | 
CCN(CC)C(=O)C(c1ccccc1)C1CCN(c2ccc(NC(=O)c3c(C)noc3C)cc2F)CC1 (centres undefined) | 37 | 5.3 | 3.3 | IC50 [5]: > 10000 nM; Kb [6]: 31.6 nM; Occ ([7]; route subcutaneous): 50%
CCN(CC)C(=O)C(c1ccccc1)N1CCN(c2ccc(NC(=O)c3ccccc3-c3cccnc3)cc2F)CC1 (centres undefined) |  | 1.4 | 1.7 | IC50 [8]: 710 nM
CCNC(=O)C(c1ccccc1)C1CCN(c2ccc(NC(=O)Nc3c(C)noc3C)cc2F)CC1 (centres undefined) |  |  |  | IC50 [5]: > 10000 nM; Kb [6]: 3.98 nM; Occ [7]: inactive
